Patent US20240150340A1, “CDK Inhibitors And Their Use As Pharmaceuticals” (Prelude Therapeutics Incorporated, priority 2022, published 2024)
pIC50: −log10 of the molar value.

Tests used:
CDK2/Cyclin E2 = molecular target: T1, CDK2/Cyclin E2 (Homo sapiens, UniProt P24941); test: CDK2/CyclinE2 Enzymatic Activity Assay (TR-FRET); format: biochemical; details: ATP 1 mM final, read-out: CDK2_E1 IC50
T1 construct: Recombinant protein complex CDK2/Cyclin E2, expressed from insect cell, was purchased from ProQinase
How it was run: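 Recombinant insect-cell CDK2/Cyclin E2 (1 nM) phosphorylated ULight-4E-BP1 (50 nM) with 1 mM ATP in HEPES pH 7.4 buffer, after 20 min compound preincubation; MgCl2 (10 mM) started the 45 min reaction at 37° C. Europium anti-phospho-4E-BP1 TR-FRET read; 9-dose IC50 by 4-parameter fit.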

CDK4/Cyclin D1 = molecular target: T2, CDK4/Cyclin D1 (Homo sapiens, UniProt P11802); test: CDK4/CyclinD1 Enzymatic Activity Assay (TR-FRET); format: biochemical; details: ATP 2 mM final, read-out: CDK4_D1 IC50
T2 construct: purchased ProQinase; host or cells: insect cell
T2 sequence (P11802 whole entry): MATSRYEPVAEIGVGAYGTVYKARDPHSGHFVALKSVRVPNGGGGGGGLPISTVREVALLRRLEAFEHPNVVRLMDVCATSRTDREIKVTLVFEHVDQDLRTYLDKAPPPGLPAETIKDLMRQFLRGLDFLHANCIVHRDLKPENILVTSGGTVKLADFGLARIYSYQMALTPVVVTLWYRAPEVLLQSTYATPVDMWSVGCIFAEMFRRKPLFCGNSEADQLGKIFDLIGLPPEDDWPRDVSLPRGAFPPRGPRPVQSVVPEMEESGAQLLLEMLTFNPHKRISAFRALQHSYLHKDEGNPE
T2 sequence (P24385 whole entry partner): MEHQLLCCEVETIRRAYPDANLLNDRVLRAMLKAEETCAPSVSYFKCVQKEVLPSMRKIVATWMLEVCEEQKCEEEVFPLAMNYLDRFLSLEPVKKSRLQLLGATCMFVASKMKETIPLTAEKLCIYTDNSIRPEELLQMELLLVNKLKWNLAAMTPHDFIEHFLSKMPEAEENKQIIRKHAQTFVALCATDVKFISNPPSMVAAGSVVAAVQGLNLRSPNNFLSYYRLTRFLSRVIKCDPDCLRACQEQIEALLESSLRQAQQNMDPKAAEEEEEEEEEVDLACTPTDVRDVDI
Description: CDK4/CyclinD1 Enzymatic Activity Assay
The inhibitory activity of compounds was evaluated in vitro using TR-FRET assay with white 384-well low volume microplate (Greiner Bio-One). CDK4/Cyclin D1 catalyzed phosphorylation of peptide in the presence and absence of compounds was measured and used in IC50 determination. Recombinant protein complex CDK4/Cyclin D1, expressed from insect cell, was purchased from ProQinase. Testing compounds were dissolved in DMSO at 1 mM and tested in 9-dose IC50 mode. The reaction mixture was prepared by mixing CDK4/CyclinD1 (1 nM final), ULight-4E-BP1 (100 nM final, Perkinelmer, TRF0128-D), and ATP (2 mM final) in assay buffer (20 mM of HEPES pH 7.4, 1 mM of EGTA, 0.05% BSA, 0.005% Tween 20, and 1 mM TCEP). The compound of interest in DMSO was added to each well in 3-fold serial dilution by the dispenser (TECAN D300E) to make a 9.9 μL of reaction mixture. After 20 minutes preincubation at room temperature, 0.1 μL MgCl2 (10 mM final) was added to initiate the reaction. Following a 45-minute incubation at 37° C., the reaction was stopped by addition of 2 μL of quenching buffer consisting of Lance detection buffer (Perkinelmer CR97-100C), LANCE Ultra Europium-anti-P-4E-BP1 (Perkinelmer, TRF0216-D), EDTA, and incubated at room temperature for additional 60 minutes in dark. The reaction signal was measured by Envision multimode plate reader (PerkinElmer, 2102-0010). IC50 values were determined by fitting the data to the standard 4 parameters with Hill Slope using GraphPad Prism software.

OVCAR3 p-RB = test: pRB ICW Assay in OVCAR3 Cells; format: cell-based; details: Homo sapiens, OVCAR-3, incubated with compound for 2 hours
How it was run: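 In-Cell Western on OVCAR3: phospho-RB antibody signal with DRAQ5 counterstain read at 700 and 800 nm after fixation. Compounds were applied for 2 h at 37° C. as 9-point ½-log dilutions in duplicate; 10 μM reference compound defined full inhibition.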

pIC50 (CDK2/Cyclin E2)	pIC50 (CDK4/Cyclin D1)	pIC50 (OVCAR3 p-RB)	SMILES
≥ 7.00	≥ 7.00	≥ 7.00	Cn1cnc(S(=O)(=O)N2CCC(Nc3ncc(C(F)(F)F)c(-c4ncc(CC(C)(C)O)s4)n3)CC2)c1 [Example 3, 2-Methyl-1-(2-(2-((1-((1-methyl-1H-imidazol-4-yl)sulfonyl)piperidin-4-yl)amino)-5-(trifluoromethyl)pyrimidin-4-yl)thiazol-5-yl)propan-2-ol]
≥ 7.00	≥ 7.00	6.30 to 7.00	Cc1sc(-c2nc(N[C@@H]3CCN(S(=O)(=O)c4cnn(C)c4)C[C@H]3F)ncc2C(F)(F)F)cc1C#N [Example 4, 5-(2-(((3R,4R)-3-fluoro-1-((1-methyl-1H-pyrazol-4-yl)sulfonyl)piperidin-4-yl)amino)-5-(trifluoromethyl)pyrimidin-4-yl)-2-methylthiophene-3-carbonitrile]
≥ 7.00	≥ 7.00	6.30 to 7.00	Cc1sc(-c2nc(N[C@@H]3CCN(S(=O)(=O)c4cn(C)cn4)C[C@H]3F)ncc2C(F)(F)F)cc1C#N [Example 5, 5-(2-(((3R,4R)-3-fluoro-1-((1-methyl-1H-imidazol-4-yl)sulfonyl)piperidin-4-yl)amino)-5-(trifluoromethyl)pyrimidin-4-yl)-2-methylthiophene-3-carbonitrile]
≥ 7.00	≥ 7.00	≥ 7.00	CS(=O)(=O)N1CC[C@@H](Nc2ncc(C(F)(F)F)c(-c3cc(C(N)=O)cs3)n2)[C@H](F)C1 [Example 6, 5-(2-(((3R,4R)-3-fluoro-1-(methylsulfonyl)piperidin-4-yl)amino)-5-(trifluoromethyl)pyrimidin-4-yl)thiophene-3-carboxamide]
≥ 7.00	≥ 7.00	≥ 7.00	CS(=O)(=O)N1CC[C@H](Nc2ncc(C(F)(F)F)c(-c3cc(C(N)=O)cs3)n2)[C@H](F)C1 [Example 7, 5-(2-(((3R,4S)-3-fluoro-1-(methylsulfonyl)piperidin-4-yl)amino)-5-(trifluoromethyl)pyrimidin-4-yl)thiophene-3-carboxamide]
≥ 7.00	≥ 7.00	≥ 7.00	Cc1sc(-c2nc(N[C@@H]3CCN(S(C)(=O)=O)C[C@H]3F)ncc2C(F)(F)F)cc1C(N)=O [Example 8, 5-(2-(((3R,4R)-3-fluoro-1-(methylsulfonyl)piperidin-4-yl)amino)-5-(trifluoromethyl)pyrimidin-4-yl)-2-methylthiophene-3-carboxamide]
≥ 7.00	≥ 7.00	≥ 7.00	Cc1sc(-c2nc(N[C@H]3CCN(S(C)(=O)=O)C[C@H]3F)ncc2C(F)(F)F)cc1C(N)=O [Example 9, 5-(2-(((3R,4S)-3-fluoro-1-(methylsulfonyl)piperidin-4-yl)amino)-5-(trifluoromethyl)pyrimidin-4-yl)-2-methylthiophene-3-carboxamide]
≥ 7.00	6.30 to 7.00	6.30 to 7.00	C[C@@H]1CN(S(C)(=O)=O)CC[C@@H]1Nc1ncc(C(F)(F)F)c(-c2cc(C(N)=O)cs2)n1 [Example 10, 5-(2-(((3R,4S)-3-methyl-1-(methylsulfonyl)piperidin-4-yl)amino)-5-(trifluoromethyl)pyrimidin-4-yl)thiophene-3-carboxamide]
≥ 7.00	≥ 7.00	≥ 7.00	Cn1cc(S(=O)(=O)N2CC[C@H](Nc3ncc(C(F)(F)F)c(-c4cc(C(N)=O)cs4)n3)[C@H](F)C2)cn1 [Example 11, 5-(2-(((3R,4S)-3-fluoro-1-((1-methyl-1H-pyrazol-4-yl)sulfonyl)piperidin-4-yl)amino)-5-(trifluoromethyl)pyrimidin-4-yl)thiophene-3-carboxamide]
≥ 7.00	≥ 7.00	≥ 7.00	Cn1cnc(S(=O)(=O)N2CC[C@H](Nc3ncc(C(F)(F)F)c(-c4cc(C(N)=O)cs4)n3)[C@H](F)C2)c1 [Example 12, 5-(2-(((3R,4S)-3-fluoro-1-((1-methyl-1H-imidazol-4-yl)sulfonyl)piperidin-4-yl)amino)-5-(trifluoromethyl)pyrimidin-4-yl)thiophene-3-carboxamide]
≥ 7.00	≥ 7.00	≥ 7.00	Cn1cc(S(=O)(=O)N2CC[C@@H](Nc3ncc(C(F)(F)F)c(-c4cc(C(N)=O)cs4)n3)[C@H](F)C2)cn1 [Example 13, 5-(2-(((3R,4R)-3-fluoro-1-((1-methyl-1H-pyrazol-4-yl)sulfonyl)piperidin-4-yl)amino)-5-(trifluoromethyl)pyrimidin-4-yl)thiophene-3-carboxamide]
≥ 7.00	≥ 7.00	6.30 to 7.00	Cn1cnc(S(=O)(=O)N2CC[C@@H](Nc3ncc(C(F)(F)F)c(-c4cc(C(N)=O)cs4)n3)[C@H](F)C2)c1 [Example 14, 5-(2-(((3R,4R)-3-fluoro-1-((1-methyl-1H-imidazol-4-yl)sulfonyl)piperidin-4-yl)amino)-5-(trifluoromethyl)pyrimidin-4-yl)thiophene-3-carboxamide]
≥ 7.00	≥ 7.00	≥ 7.00	Cc1sc(-c2nc(N[C@H]3CCN(S(=O)(=O)c4cnn(C)c4)C[C@H]3F)ncc2C(F)(F)F)cc1C(N)=O [Example 15, 5-(2-(((3R,4S)-3-fluoro-1-((1-methyl-1H-pyrazol-4-yl)sulfonyl)piperidin-4-yl)amino)-5-(trifluoromethyl)pyrimidin-4-yl)-2-methylthiophene-3-carboxamide]
≥ 7.00	≥ 7.00	≥ 7.00	Cc1sc(-c2nc(N[C@H]3CCN(S(=O)(=O)c4cn(C)cn4)C[C@H]3F)ncc2C(F)(F)F)cc1C(N)=O [Example 16, 5-(2-(((3R,4S)-3-fluoro-1-((1-methyl-1H-imidazol-4-yl)sulfonyl)piperidin-4-yl)amino)-5-(trifluoromethyl)pyrimidin-4-yl)-2-methylthiophene-3-carboxamide]
≥ 7.00	≥ 7.00	≥ 7.00	Cc1sc(-c2nc(N[C@@H]3CCN(S(=O)(=O)c4cnn(C)c4)C[C@H]3F)ncc2C(F)(F)F)cc1C(N)=O [Example 17, 5-(2-(((3R,4R)-3-fluoro-1-((1-methyl-1H-pyrazol-4-yl)sulfonyl)piperidin-4-yl)amino)-5-(trifluoromethyl)pyrimidin-4-yl)-2-methylthiophene-3-carboxamide]
≥ 7.00	≥ 7.00	≥ 7.00	Cc1sc(-c2nc(N[C@@H]3CCN(S(=O)(=O)c4cn(C)cn4)C[C@H]3F)ncc2C(F)(F)F)cc1C(N)=O [Example 18, 5-(2-(((3R,4R)-3-fluoro-1-((1-methyl-1H-imidazol-4-yl)sulfonyl)piperidin-4-yl)amino)-5-(trifluoromethyl)pyrimidin-4-yl)-2-methylthiophene-3-carboxamide]
≥ 7.00	≥ 7.00	≥ 7.00	C[C@@H]1CN(S(=O)(=O)c2cnn(C)c2)CC[C@@H]1Nc1ncc(C(F)(F)F)c(-c2cc(C(N)=O)cs2)n1 [Example 19, 5-(2-(((3R,4S)-3-methyl-1-((1-methyl-1H-pyrazol-4-yl)sulfonyl)piperidin-4-yl)amino)-5-(trifluoromethyl)pyrimidin-4-yl)thiophene-3-carboxamide]
≥ 7.00	≥ 7.00	6.30 to 7.00	C[C@@H]1CN(S(=O)(=O)c2cn(C)cn2)CC[C@@H]1Nc1ncc(C(F)(F)F)c(-c2cc(C(N)=O)cs2)n1 [Example 20, 5-(2-(((3R,4S)-3-methyl-1-((1-methyl-1H-imidazol-4-yl)sulfonyl)piperidin-4-yl)amino)-5-(trifluoromethyl)pyrimidin-4-yl)thiophene-3-carboxamide]
≥ 7.00	6.30 to 7.00	6.30 to 7.00	C[C@@H]1CN(S(=O)(=O)c2c[nH]cn2)CC[C@@H]1Nc1ncc(C(F)(F)F)c(-c2cc(C(N)=O)cs2)n1 [Example 21, 5-(2-(((3R,4S)-1-((1H-imidazol-4-yl)sulfonyl)-3-methylpiperidin-4-yl)amino)-5-(trifluoromethyl)pyrimidin-4-yl)thiophene-3-carboxamide]
≥ 7.00	6.30 to 7.00	≥ 7.00	C[C@@H]1CN(S(=O)(=O)c2cnc3cccnn23)CC[C@@H]1Nc1ncc(C(F)(F)F)c(-c2cc(C(N)=O)cs2)n1 [Example 22, 5-(2-(((3R,4S)-1-(imidazo[1,2-b]pyridazin-3-ylsulfonyl)-3-methylpiperidin-4-yl)amino)-5-(trifluoromethyl)pyrimidin-4-yl)thiophene-3-carboxamide]
